This is an account of results in patent US20220087969A1, “METHOD FOR TREATING ASTHMA” (Olatec Therapeutics LLC, priority 2019, published 2022).

Data set [1] in a line: Blood level in mice fed dapansutrile food pellets. Format: in vivo, mouse. Particulars: 7.5 g/kg dapansutrile in food, nearly the same as the human level. The method, then: The already-sensitized mice were fed ad libidum with food pellets containing 7.5 g/kg dapansutrile starting on day 22 for one week; the first aerosol challenge was on day 26. Mice typically consume about 4 g of food per day, resulting in an approximate daily dose of 0 mg/kg/day for control groups and 1,000 mg/kg/day for the treatment groups.

In data set [2] the test system is OVA-induced allergic airway inflammation. Nature of the data set: Leukocyte subpopulations in bronchoalveolar lavage fluid, OVA allergic asthma model, i.p. dapansutrile. It is filed as in vivo, C57BL/6j mice. Particulars: Day 29. The source says:
A well-established mouse model of experimental allergic asthma (Sel 2008, Wegmann 2005, Wegmann 2007, Lunding 2015a) was used to evaluate dapansutrile as a therapeutic option in allergic bronchial asthma and to determine if dapansutrile would have an impact on airway inflammation and the development of airway hyperresponsiveness (AHR) Inflammation in this model is characterized by the infiltration of eosinophils as well as of TH2 cells and involves the subsequent development of AHR and mucus hyperproduction so that this model resembles the major pathophysiologic hallmarks of human bronchial asthma.
C57BL/6j mice were sensitized to OVA (ovalbumin) by three intraperitoneal (i.p.) injections of 10 μg OVA adsorbed to 150 mg aluminum hydroxide on days 1, 14, and 21. This sensitization results in an adoptive immune response against OVA with OVA-specific TH2 cells and the production of OVA-specific antibodies of the subclasses IgE and IgG4.
To induce acute allergic airway inflammation, mice were exposed three times to an OVA aerosol (1% w/v in PBS) on days 26, 27, and 28.
Healthy control animals (healthy group) were sham sensitized to PBS and subsequently challenged with PBS aerosol. Non-drug treated animals (asthmatic group) and drug-treated animals (treated group) were sensitized by […] and subsequently challenged with OVA aerosol. The treatment group were treated with dapansutrile at 60 mg/kg at days 25, 26, 27, and 28 by intraperitoneal (i.p). injection, whereas the healthy group and the asthmatic group were administered with saline by intraperitoneal injection on days 25, 26, 27, and 28.
Eight animals per group were used. All animals were sacrificed on day 29. The following readouts were measured according to Lunding, 2015b. • General infiltration of inflammatory cells into the broncheoalveolar lumen • Determination of the specific infiltration of eosinophils, neutrophils and lymphocytes by histologic differentiation of the bronchoalveolar lavage (BAL) cells. • Goblet cell hyperplasia by CAST system (Computer Assisted Stereological Toolbox), including making microscopic pictures of the airways. • Airway resistance in response to methacholine to determine the airway hyperresponsiveness.
Specifically, inflammatory cell subpopulations (eosinophils, macrophages, neutrophils, lymphocytes) infiltrating the bronchoalveolar lumen were quantified using cyto-spinned and quick-diff-stained cells from bronchoalveolar lavage fluids (BALF). Further, inflammatory cell infiltration was recorded from hematoxylin and eosin (HE)-stained lung/airway cross-sections. AHR was assessed by recording airway resistance during a methacholine (MCh) provocation test in mice mechanically ventilated by a Buxco FinePoint RC unit. Mucus hyperproduction was quantified in PAS (periodic acid-Schiff)-stained airway cross-sections undergoing systematic, uniform random sampling and subsequent stereologic analysis of mucus amount in the airways and mucus producing goblet cells in the airway mucosa.
Allergic airway inflammation and mucus hyperproduction were assessed on Day 29, 24 hours after the final OVA aerosol challenge and dapansutrile dose.

`CS(=O)(=O)CCC#N` [dapansutrile, 3-methanesulfonylpropionitrile] registered a blood level in data set [1] of approximately 40000 ng/mL. For the same compound, in data set [2] (60 mg/kg i.p. days 25-28, vs asthmatic mice), the “reduction in lymphocytes in BALF” value was 32%. The “reduction in eosinophils in BALF” value in data set [2] (60 mg/kg i.p. days 25-28, vs asthmatic mice, p<0.0001) is “approximately 60%”. In data set [2] (60 mg/kg i.p. days 25-28, vs asthmatic mice, p<0.01), the “reduction in neutrophils in BALF” value is reported as 70%. Further, the “macrophage numbers in BALF” value in data set [2] (60 mg/kg i.p., vs asthmatic mice) is reported as “no significant reduction”. For the same compound, the “eosinophils in BALF” value in data set [2] (treated mice, 60 mg/kg i.p. days 25-28, asthmatic 21.96×10^4) was 7.30×10^4 cells/ml. In data set [2] (treated mice, 60 mg/kg i.p., asthmatic 0.80×10^4), the “lymphocytes in BALF” value is 0.55×10^4 cells/ml. Further, the “neutrophils in BALF” value in data set [2] (treated mice, 60 mg/kg i.p., asthmatic 2.41×10^4) is reported as 0.70×10^4 cells/ml.
